# *1 amine or outer side, *2 acyl side, *3 side chain or, on linkers, in order; H or OH if unused. Where a SMILES comes first, the peptide text is derived from it. [ ]: non-standard residue; d: D form. Trp(4-Cl)(βS-Me) = C[C@@H](c1c[nH]c2cccc(Cl)c12)[C@H](N)C(=O)O; Trp(βS-Me,4-F) = C[C@@H](c1c[nH]c2cccc(F)c12)[C@H](N)C(=O)O; Bip(4'-COOH) = N[C@@H](Cc1ccc(-c2ccc(C(=O)O)cc2)cc1)C(=O)O; 1Nal(3S-Me) = C[C@@H](c1cccc2ccccc12)[C@H](N)C(=O)O; X5 = O=C([C@@H]1C[C@@H](NCCc2ccccc2)CN1[*:1])[*:2]; Ala(indazol-1-yl) = N[C@@H](Cn1ncc2ccccc21)C(=O)O; Phe(3-allyloxy) = C=CCOc1cccc(C[C@H](N)C(=O)O)c1; Trp(6-Cl) = N[C@@H](Cc1c[nH]c2cc(Cl)ccc12)C(=O)O; Phe(4-COOH) = N[C@@H](Cc1ccc(C(=O)O)cc1)C(=O)O; Trp(7-aza) = N[C@@H](Cc1c[nH]c2ncccc12)C(=O)O; Phe(4-CH2NH2) = NCc1ccc(C[C@H](N)C(=O)O)cc1; h3Pal(5-CN) = N#Cc1cncc(CC[C@H](N)C(=O)O)c1; Pro(4R-NH2) = N[C@H]1CN[C@H](C(=O)O)C1; 1Nal = N[C@@H](Cc1cccc2ccccc12)C(=O)O; AEF = NCCOc1ccc(C[C@H](N)C(=O)O)cc1; hTyr = N[C@@H](CCc1ccc(O)cc1)C(=O)O; hCha = N[C@@H](CCC1CCCCC1)C(=O)O; 4Pal = N[C@@H](Cc1ccncc1)C(=O)O; dDab = NCC[C@@H](N)C(=O)O; hSer = N[C@@H](CCO)C(=O)O; dNMeA = CN[C@H](C)C(=O)O; Dab = NCC[C@H](N)C(=O)O; Dap = NC[C@H](N)C(=O)O; Aib = CC(C)(N)C(=O)O
# Molecular target: T1, Recombinant human IL-1β (Homo sapiens, UniProt P01584)
# T1 construct: purchased BioLegend 579404
# Assay: IL-6 assay in MRC5 cells: inhibition of IL-1β induced IL-6 secretion (AlphaLISA)
# Type: cell-based
# Details: inhibition of IL-1β induced IL-6 secretion in MRC5 cells; IL-1β pre-incubated 1 hour with compound; read-out: MRC5 IC50
# In short: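 IL-1β at 2×EC80 in seeding medium (EMEM, 0.025% BSA) preincubated 1 h at ambient temperature with compound, then 3000 MRC5 cells/well added and incubated overnight at 37 °C, 5% CO2. IL-6 in conditioned medium quantified by AlphaLISA; IC50 from 4-parameter logistic fit.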
# T1 sequence (P01584 117-269): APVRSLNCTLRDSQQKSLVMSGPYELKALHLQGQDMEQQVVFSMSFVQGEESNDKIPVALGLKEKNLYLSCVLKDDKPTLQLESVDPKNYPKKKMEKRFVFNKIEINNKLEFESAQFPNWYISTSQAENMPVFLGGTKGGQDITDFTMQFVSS
row,Compound,IC50 [nM]
1,C[C@@H]1C(=O)NCC(=O)N[C@@H](Cc2ccc(-c3ccc(C(=O)O)cc3)cc2)C(=O)N[C@@H](Cc2ccc(CN)cc2)C(=O)N[C@@H](CO)C(=O)N[C@H](C)C(=O)N[C@@H](CCc2ccc(O)cc2)C(=O)N[C@@H](Cc2ccc(-c3ccc(C(=O)O)cc3)cc2)C(=O)N[C@@H](Cc2c[nH]c3ccccc23)C(=O)N[C@@H](Cc2ccc(C(=O)O)cc2)C(=O)NCC(=O)N2C[C@H](N)C[C@H]2C(=O)N[C@@H]([C@@H](C)c2c[nH]c3cccc(Cl)c23)C(=O)N[C@@H](CC(=O)O)C(=O)N1C [Example 51] (cyclo([Bip(4'-COOH)]W[Phe(4-COOH)]G[Pro(4R-NH2)][Trp(4-Cl)(βS-Me)]D[dNMeA]G[Bip(4'-COOH)][Phe(4-CH2NH2)]S[dA][hTyr])),0.32
2,CC(=O)NCCOc1ccc(C[C@@H]2NC(=O)CNC(=O)C(C)(C)NC(=O)[C@H](CCN)NC(=O)[C@H](Cc3cccc4ccccc34)NC(=O)[C@H](Cc3ccc(-c4ccc(C(=O)O)cc4)cc3)NC(=O)CNC(=O)[C@@H](C)N(C)C(=O)[C@H](CC(=O)O)NC(=O)[C@H]([C@@H](C)c3cccc4ccccc34)NC(=O)[C@@H]3C[C@@H](N)CN3C(=O)CNC(=O)[C@H](Cc3ccc(C(=O)O)cc3)NC(=O)[C@H](Cc3c[nH]c4ccccc34)NC2=O)cc1 [Example 92] (cyclo([AEF](Ac)W[Phe(4-COOH)]G[Pro(4R-NH2)][1Nal(3S-Me)]D[dNMeA]G[Bip(4'-COOH)][1Nal][Dab][Aib]G)),0.457

# Other lines, results leading:
row,IC50 [nM],Compound
1,0.107,"C[C@@H]1C(=O)NCC(=O)N[C@@H](Cc2ccc(-c3ccc(C(=O)O)cc3)cc2)C(=O)N[C@@H](CCCCN)C(=O)N[C@@H](CO)C(=O)N[C@H](C)C(=O)N[C@@H](CCc2ccc(O)cc2)C(=O)N[C@@H](Cc2ccc(-c3ccc(C(=O)O)cc3)cc2)C(=O)N[C@@H](Cc2c[nH]c3ccccc23)C(=O)N[C@@H](Cc2ccc(C(=O)O)cc2)C(=O)NCC(=O)N2C[C@H](N)C[C@H]2C(=O)N[C@@H]([C@@H](C)c2c[nH]c3cccc(F)c23)C(=O)N[C@@H](CC(=O)O)C(=O)N1C [Example 72] (cyclo([Bip(4'-COOH)]W[Phe(4-COOH)]G[Pro(4R-NH2)][Trp(βS-Me,4-F)]D[dNMeA]G[Bip(4'-COOH)]KS[dA][hTyr]))"
2,0.244,CC(C)C[C@@H]1NC(=O)[C@H](CCCCN)NC(=O)[C@H](Cc2ccc(-c3ccc(C(=O)O)cc3)cc2)NC(=O)CNC(=O)[C@@H](C)N(C)C(=O)[C@H](CC(=O)O)NC(=O)[C@H]([C@@H](C)c2c[nH]c3cccc(Cl)c23)NC(=O)[C@@H]2C[C@@H](N)CN2C(=O)CNC(=O)[C@H](Cc2ccc(C(=O)O)cc2)NC(=O)[C@H](Cc2c[nH]c3ccccc23)NC(=O)[C@H](Cc2ccc(-c3ccc(C(=O)O)cc3)cc2)NC(=O)[C@H](CCc2ccc(O)cc2)NC(=O)[C@@H](CCN)NC1=O [Example 43] (cyclo([Bip(4'-COOH)]W[Phe(4-COOH)]G[Pro(4R-NH2)][Trp(4-Cl)(βS-Me)]D[dNMeA]G[Bip(4'-COOH)]KL[dDab][hTyr]))
3,0.0507,CC(=O)NCCOc1ccc(C[C@@H]2NC(=O)[C@H](CCc3cncc(C#N)c3)NC(=O)[C@@H](CCN)NC(=O)CNC(=O)[C@H](Cn3ncc4ccccc43)NC(=O)[C@H](Cc3ccc(-c4ccc(C(=O)O)cc4)cc3)NC(=O)CNC(=O)[C@@H](C)N(C)C(=O)[C@H](CC(=O)O)NC(=O)[C@H]([C@@H](C)c3cccc4ccccc34)NC(=O)[C@@H]3C[C@@H](N)CN3C(=O)CNC(=O)[C@H](Cc3ccc(C(=O)O)cc3)NC(=O)[C@H](Cc3c[nH]c4ccccc34)NC2=O)cc1 [Example 90] (cyclo([AEF](Ac)W[Phe(4-COOH)]G[Pro(4R-NH2)][1Nal(3S-Me)]D[dNMeA]G[Bip(4'-COOH)][Ala(indazol-1-yl)]G[dDab][h3Pal(5-CN)]))
4,0.122,"C=CCOc1cccc(C[C@@H]2NC(=O)[C@H](Cc3ccc(-c4ccc(C(=O)O)cc4)cc3)NC(=O)CNC(=O)[C@@H](C)N(C)C(=O)[C@H](CC(=O)O)NC(=O)[C@H]([C@@H](C)c3c[nH]c4cccc(F)c34)NC(=O)[C@@H]3C[C@@H](N)CN3C(=O)CNC(=O)[C@H](Cc3ccc(C(=O)O)cc3)NC(=O)[C@H](Cc3c[nH]c4ccccc34)NC(=O)[C@H](Cc3ccc(-c4ccc(C(=O)O)cc4)cc3)NC(=O)[C@H](CCc3ccc(O)cc3)NC(=O)[C@@H](C)NC(=O)[C@H](CC(C)C)NC2=O)c1 [Example 76] (cyclo([Bip(4'-COOH)]W[Phe(4-COOH)]G[Pro(4R-NH2)][Trp(βS-Me,4-F)]D[dNMeA]G[Bip(4'-COOH)][Phe(3-allyloxy)]L[dA][hTyr]))"
5,0.0233,CC(=O)NCCOc1ccc(C[C@@H]2NC(=O)[C@H](CCc3cncc(C#N)c3)NC(=O)[C@@H](CCN)NC(=O)CNC(=O)[C@H](Cc3c[nH]c4ncccc34)NC(=O)[C@H](Cc3ccc(-c4ccc(C(=O)O)cc4)cc3)NC(=O)CNC(=O)[C@@H](C)N(C)C(=O)[C@H](CC(=O)O)NC(=O)[C@H]([C@@H](C)c3cccc4ccccc34)NC(=O)[C@@H]3C[C@@H](N)CN3C(=O)CNC(=O)[C@H](Cc3ccc(C(=O)O)cc3)NC(=O)[C@H](Cc3c[nH]c4ccccc34)NC2=O)cc1 [Example 114] (cyclo([AEF](Ac)W[Phe(4-COOH)]G[Pro(4R-NH2)][1Nal(3S-Me)]D[dNMeA]G[Bip(4'-COOH)][Trp(7-aza)]G[dDab][h3Pal(5-CN)]))
6,0.0418,C[C@@H]1C(=O)NCC(=O)N[C@@H](Cc2ccc(-c3ccc(C(=O)O)cc3)cc2)C(=O)N[C@@H](Cc2c[nH]c3ccccc23)C(=O)N[C@@H](CN)C(=O)N[C@H](C)C(=O)N[C@@H](CCc2ccc(O)cc2)C(=O)N[C@@H](Cc2ccc(-c3ccc(C(=O)O)cc3)cc2)C(=O)N[C@@H](Cc2c[nH]c3ccccc23)C(=O)N[C@@H](Cc2ccc(C(=O)O)cc2)C(=O)NCC(=O)N2C[C@H](N)C[C@H]2C(=O)N[C@@H]([C@@H](C)c2c[nH]c3cccc(Cl)c23)C(=O)N[C@@H](CC(=O)O)C(=O)N1C [Example 53] (cyclo([Bip(4'-COOH)]W[Phe(4-COOH)]G[Pro(4R-NH2)][Trp(4-Cl)(βS-Me)]D[dNMeA]G[Bip(4'-COOH)]W[Dap][dA][hTyr]))
7,0.0205,C[C@@H]1C(=O)NCC(=O)N[C@@H](Cc2ccc(-c3ccc(C(=O)O)cc3)cc2)C(=O)N[C@@H](Cc2c[nH]c3ncccc23)C(=O)N[C@@H](CN)C(=O)N[C@H](C)C(=O)N[C@@H](CCc2ccc(O)cc2)C(=O)N[C@@H](Cc2ccc(-c3ccc(C(=O)O)cc3)cc2)C(=O)N[C@@H](Cc2c[nH]c3ccccc23)C(=O)N[C@@H](Cc2ccc(C(=O)O)cc2)C(=O)NCC(=O)N2C[C@H](N)C[C@H]2C(=O)N[C@@H]([C@@H](C)c2cccc3ccccc23)C(=O)N[C@@H](CC(=O)O)C(=O)N1C [Example 29] (cyclo([Bip(4'-COOH)]W[Phe(4-COOH)]G[Pro(4R-NH2)][1Nal(3S-Me)]D[dNMeA]G[Bip(4'-COOH)][Trp(7-aza)][Dap][dA][hTyr]))
8,0.0329,C[C@@H]1C(=O)NCC(=O)N[C@@H](Cc2ccc(-c3ccc(C(=O)O)cc3)cc2)C(=O)N[C@@H](Cc2c[nH]c3ccccc23)C(=O)N[C@@H](CN)C(=O)N[C@H](C)C(=O)N[C@@H](CCc2ccc(O)cc2)C(=O)N[C@@H](Cc2ccc(-c3ccc(C(=O)O)cc3)cc2)C(=O)N[C@@H](Cc2c[nH]c3ccccc23)C(=O)N[C@@H](Cc2ccc(C(=O)O)cc2)C(=O)NCC(=O)N2C[C@H](NCCc3ccccc3)C[C@H]2C(=O)N[C@@H]([C@@H](C)c2cccc3ccccc23)C(=O)N[C@@H](CC(=O)O)C(=O)N1C [Example 83] (cyclo([Bip(4'-COOH)]W[Phe(4-COOH)]G[X5][1Nal(3S-Me)]D[dNMeA]G[Bip(4'-COOH)]W[Dap][dA][hTyr]))

# Same assay, conditions: inhibition of IL-1β induced IL-6 secretion in MRC5 cells; read-out: MRC5 IC50
row,Compound,IC50 [nM]
1,CC(=O)NCCOc1ccc(C[C@@H]2NC(=O)[C@H](CCC3CCCCC3)NC(=O)[C@@H](CCN)NC(=O)[C@H](CO)NC(=O)[C@H](Cc3c[nH]c4ncccc34)NC(=O)[C@H](Cc3ccc(-c4ccc(C(=O)O)cc4)cc3)NC(=O)CNC(=O)[C@@H](C)N(C)C(=O)[C@H](CC(=O)O)NC(=O)[C@H]([C@@H](C)c3cccc4ccccc34)NC(=O)[C@@H]3C[C@@H](N)CN3C(=O)CNC(=O)[C@H](Cc3ccc(C(=O)O)cc3)NC(=O)[C@H](Cc3c[nH]c4cc(Cl)ccc34)NC2=O)cc1 [Example 210] (cyclo([AEF](Ac)[Trp(6-Cl)][Phe(4-COOH)]G[Pro(4R-NH2)][1Nal(3S-Me)]D[dNMeA]G[Bip(4'-COOH)][Trp(7-aza)]S[dDab][hCha])),0.02
2,"CC(=O)NCCOc1ccc(C[C@@H]2NC(=O)[C@H](CCc3ccc(O)cc3)NC(=O)[C@@H](C)NC(=O)[C@H](CC(C)C)NC(=O)[C@H](Cc3ccncc3)NC(=O)[C@H](Cc3ccc(-c4ccc(C(=O)O)cc4)cc3)NC(=O)CNC(=O)[C@@H](C)N(C)C(=O)[C@H](CC(=O)O)NC(=O)[C@H]([C@@H](C)c3c[nH]c4cccc(F)c34)NC(=O)[C@@H]3C[C@@H](N)CN3C(=O)CNC(=O)[C@H](Cc3ccc(C(=O)O)cc3)NC(=O)[C@H](Cc3c[nH]c4ccccc34)NC2=O)cc1 [Example 156] (cyclo([AEF](Ac)W[Phe(4-COOH)]G[Pro(4R-NH2)][Trp(βS-Me,4-F)]D[dNMeA]G[Bip(4'-COOH)][4Pal]L[dA][hTyr]))",0.948
3,COCC[C@@H]1NC(=O)[C@H](Cc2c[nH]c3ccccc23)NC(=O)[C@H](Cc2ccc(-c3ccc(C(=O)O)cc3)cc2)NC(=O)CNC(=O)[C@@H](C)N(C)C(=O)[C@H](CC(=O)O)NC(=O)[C@H]([C@@H](C)c2c[nH]c3cccc(Cl)c23)NC(=O)[C@@H]2C[C@@H](N)CN2C(=O)CNC(=O)[C@H](Cc2ccc(C(=O)O)cc2)NC(=O)[C@H](Cc2c[nH]c3ccccc23)NC(=O)[C@H](Cc2ccc(OCCNC(C)=O)cc2)NC(=O)[C@H](CCc2ccc(O)cc2)NC(=O)[C@@H](C)NC1=O [Example 147] (cyclo([AEF](Ac)W[Phe(4-COOH)]G[Pro(4R-NH2)][Trp(4-Cl)(βS-Me)]D[dNMeA]G[Bip(4'-COOH)]W[hSer](Me)[dA][hTyr])),0.0926

# Reference: patent publication US20230406885A1, “CYCLIC PEPTIDES FOR TRAPPING INTERLEUKIN-1 BETA” (MERCK SHARP & DOHME LLC, priority 2022, published 2023)
